target: T1, recombinant human 11 β-HSD1 (Homo sapiens, UniProt P28845); experiment: 11 β-HSD1 SPA Assay (Scintillation Proximity Assay); assay type: biochemical
T1 construct: made in house; host or cells: E. coli
Summary of the method: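 Scintillation proximity read-out of cortisol formed from 40 nM [3H]cortisone by purified recombinant human enzyme (30-100 nM, E. coli) with 1 mM NADPH, pH7.4, 2 hours at room temperature; beads with cortisol antibody and glycyrrhetinic acid stop the reaction, read next day. IC50 derived from inhibition normalised to background and maximal wells.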

T1 sequence (P28845 whole entry): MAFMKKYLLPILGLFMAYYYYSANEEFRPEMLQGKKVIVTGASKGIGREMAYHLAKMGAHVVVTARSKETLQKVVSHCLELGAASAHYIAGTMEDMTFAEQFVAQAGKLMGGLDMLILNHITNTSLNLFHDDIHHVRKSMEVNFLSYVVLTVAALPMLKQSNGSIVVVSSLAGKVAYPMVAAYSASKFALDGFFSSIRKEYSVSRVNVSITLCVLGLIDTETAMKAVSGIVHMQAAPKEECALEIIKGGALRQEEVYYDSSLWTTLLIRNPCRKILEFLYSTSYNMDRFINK

Row | Compound | IC50 [µM]
1 | CC(C)(Oc1cc(CC(=O)O)c(Cl)cc1Cl)C(=O)N[C@H]1C[C@H]2CC[C@@H](C1)N2c1ccc(C(=O)NCC(F)F)cn1 [Example 460, [2,4-dichloro-5-({1-[(8-{5-[(2,2-difluoroethyl)carbamoyl]pyridin-2-yl}-8-azabicyclo[3.2.1]oct-3-endo-yl)amino]-2-methyl-1-oxopropan-2-yl}oxy)phenyl]acetic acid] | < 0.2
2 | CC(C)(Oc1ccc(Cl)cc1Cl)C(=O)NC1CC2CCC(C1)N2c1ccc(C(=O)N2CC[C@@H](O)C2)cn1 (stereo partly drawn) [Example 461, 2-(2,4-dichlorophenoxy)-n-[8-(5-{[(3r)-3-hydroxypyrrolidin-1-yl]carbonyl}pyridin-2-yl)-8-azabicyclo[3.2.1]oct-3-endo-yl]-2-methylpropanamide] | < 0.2
3 | CC(C)(Oc1ccc(Cl)cc1Cl)C(=O)NC1CC2CCC(C1)N2c1ccc(C(=O)N2CC[C@H](O)C2)cn1 (stereo partly drawn) [Example 462, 2-(2,4-dichlorophenoxy)-N-[8-(5-{[(3s)-3-hydroxypyrrolidin-1-yl]carbonyl}pyridin-2-yl)-8-azabicyclo[3.2.1]oct-3-endo-yl]-2-methylpropanamide] | < 0.2
4 | CC(C)(Oc1ccc(Cl)cc1Cl)C(=O)NC1CC2CCC(C1)N2c1ccc(C(=O)NC(CO)C(F)(F)F)cn1 (stereo not drawn) [Example 463, 6-(3-endo-{[2-(2,4-dichlorophenoxy)-2-methylpropanoyl]amino}-8-azabicyclo[3.2.1]oct-8-yl)-N-(1,1,1-trifluoro-3-hydroxypropan-2-yl)pyridine-3-carboxamide] | < 0.2
5 | CC(C)(Oc1cc(Cl)c(CO)cc1Cl)C(=O)N[C@H]1C[C@H]2CC[C@@H](C1)N2c1ccc(C(=O)NCC(F)F)cn1 [Example 464, 6-[3-endo-({2-[2,5-dichloro-4-(hydroxymethyl)phenoxy]-2-methylpropanoyl}amino)-8-azabicyclo[3.2.1]oct-8-yl]-N-(2,2-difluoroethyl)pyridine-3-carboxamide] | < 0.2
6 | CC(C)(Oc1ccc(Cl)cc1C(C)(C)O)C(=O)N[C@H]1C[C@H]2CC[C@@H](C1)N2c1ccc(C(=O)NCC(F)F)cn1 [Example 465, 6-[3-endo-({2-[4-chloro-2-(2-hydroxypropan-2-yl)phenoxy]-2-methylpropanoyl}amino)-8-azabicyclo[3.2.1]oct-8-yl]-N-(2,2-difluoroethyl)pyridine-3-carboxamide] | < 0.2
7 | CC(C)(Oc1cc(C(C)(C)O)c(Cl)cc1F)C(=O)N[C@H]1C[C@H]2CC[C@@H](C1)N2c1ccc(C(=O)NCC(F)F)cn1 [Example 466, 6-(3-endo-(2-(4-chloro-2-fluoro-5-(2-hydroxypropan-2-yl)phenoxy)-2-methylpropanamido)-8-azabicyclo[3.2.1]octan-8-yl)-N-(2,2-difluoroethyl)nicotinamide] | < 0.2
8 | CC(C)(Oc1ccc(F)cc1C(C)(C)O)C(=O)N[C@H]1C[C@H]2CC[C@@H](C1)N2c1ccc(C(=O)NCC(F)F)cn1 [Example 467, N-(2,2-difluoroethyl)-6-(3-endo-(2-(4-fluoro-2-(2-hydroxypropan-2-yl)phenoxy)-2-methylpropanamido)-8-azabicyclo[3.2.1]octan-8-yl)nicotinamide] | < 0.2
9 | CC(C)(Oc1cc(C(C)(C)O)c(F)cc1F)C(=O)N[C@H]1C[C@H]2CC[C@@H](C1)N2c1ccc(C(=O)NCC(F)F)cn1 [Example 468, N-(2,2-difluoroethyl)-6-[3-endo-({2-[2,4-difluoro-5-(2-hydroxypropan-2-yl)phenoxy]-2-methylpropanoyl}amino)-8-azabicyclo[3.2.1]oct-8-yl]pyridine-3-carboxamide] | < 0.2
10 | CC(C)(Oc1ccc(Cl)cc1OC(F)F)C(=O)N[C@H]1C[C@H]2CC[C@@H](C1)N2c1ccc(C(=O)NCC(F)F)cn1 [Example 469, 6-[3-endo-({2-[4-chloro-2-(difluoromethoxy)phenoxy]-2-methylpropanoyl}amino)-8-azabicyclo[3.2.1]oct-8-yl]-N-(2,2-difluoroethyl)pyridine-3-carboxamide] | < 0.2
11 | CC(C)(Oc1ccc(Cl)cc1Cl)C(=O)NC1CC2CCC(C1)N2c1ccc(C(=O)NCC(N2CCOCC2)C(F)(F)F)cn1 (stereo not drawn) [Example 470, 6-(3-endo-{[2-(2,4-dichlorophenoxy)-2-methylpropanoyl]amino}-8-azabicyclo[3.2.1]oct-8-yl)-N-[3,3,3-trifluoro-2-(morpholin-4-yl)propyl]pyridine-3-carboxamide] | < 0.2
12 | CC(C)(Oc1ccc(C(C)(C)O)cc1Cl)C(=O)N[C@H]1C[C@H]2CC[C@@H](C1)N2c1ccc(C(=O)NCC(F)F)cn1 [Example 471, 6-[3-endo-({2-[2-chloro-4-(2-hydroxypropan-2-yl)phenoxy]-2-methylpropanoyl}amino)-8-azabicyclo[3.2.1]oct-8-yl]-N-(2,2-difluoroethyl)pyridine-3-carboxamide] | < 0.2
13 | CC(C)(Oc1cc(C(C)(C)O)c(F)cc1Cl)C(=O)N[C@H]1C[C@H]2CC[C@@H](C1)N2c1ccc(C(=O)NCC(F)F)cn1 [Example 472, 6-[3-endo-({2-[2-chloro-4-fluoro-5-(2-hydroxypropan-2-yl)phenoxy]-2-methylpropanoyl}amino)-8-azabicyclo[3.2.1]oct-8-yl]-N-(2,2-difluoroethyl)pyridine-3-carboxamide] | < 0.2
14 | CC(C)(Oc1cc(C(C)(C)O)c(Cl)cc1Cl)C(=O)N[C@H]1C[C@H]2CC[C@@H](C1)N2c1ccc(C(N)=O)cn1 [Example 473, 6-[3-endo-({2-[2,4-dichloro-5-(2-hydroxypropan-2-yl)phenoxy]-2-methylpropanoyl}amino)-8-azabicyclo[3.2.1]oct-8-yl]pyridine-3-carboxamide] | < 0.2
15 | CC(C)(Oc1cc(C(C)(C)O)c(Cl)cc1Cl)C(=O)N[C@H]1C[C@H]2CC[C@@H](C1)N2c1ccc(C(=O)O)cn1 [Example 474, 6-[3-endo-({2-[2,4-dichloro-5-(2-hydroxypropan-2-yl)phenoxy]-2-methylpropanoyl}amino)-8-azabicyclo[3.2.1]oct-8-yl]pyridine-3-carboxylic acid] | < 2
16 | CC(C)(Oc1cc(C(C)(C)O)c(Cl)cc1Cl)C(=O)N[C@H]1C[C@H]2CC[C@@H](C1)N2c1ccc(C(=O)NCC(F)(F)F)cn1 [Example 475, 6-[3-endo-({2-[2,4-dichloro-5-(2-hydroxypropan-2-yl)phenoxy]-2-methylpropanoyl}amino)-8-azabicyclo[3.2.1]oct-8-yl]-N-(2,2,2-trifluoroethyl)pyridine-3-carboxamide] | < 0.2
17 | CC(C)(Oc1ccc(Cl)cc1Cl)C(=O)N[C@H]1C[C@H]2CC[C@@H](C1)N2c1ccc(C(=O)NCC(=O)C(F)(F)F)cn1 [Example 476, 6-(3-endo-{[2-(2,4-dichlorophenoxy)-2-methylpropanoyl]amino}-8-azabicyclo[3.2.1]oct-8-yl)-N-(3,3,3-trifluoro-2-oxopropyl)pyridine-3-carboxamide] | < 0.2
18 | CC(C)NC(=O)c1ccc(N2[C@@H]3CC[C@H]2C[C@@H](NC(=O)C(C)(C)Oc2cc(C(C)(C)O)c(Cl)cc2Cl)C3)nc1 [Example 477, 6-[3-endo-({2-[2,4-dichloro-5-(2-hydroxypropan-2-yl)phenoxy]-2-methylpropanoyl}amino)-8-azabicyclo[3.2.1]oct-8-yl]-N-(propan-2-yl)pyridine-3-carboxamide] | < 0.2
19 | C=C(C)c1cc(OC(C)(C)C(=O)N[C@H]2C[C@H]3CC[C@@H](C2)N3c2ccc(C(=O)NCC(F)F)cn2)c(Cl)cc1Cl [Example 478, 6-[3-endo-({2-[2,4-dichloro-5-(prop-1-en-2-yl)phenoxy]-2-methylpropanoyl}amino)-8-azabicyclo[3.2.1]oct-8-yl]-N-(2,2-difluoroethyl)pyridine-3-carboxamide] | < 0.2
20 | CC(C)(Oc1cc(C(C)(C)O)c(Cl)cc1Cl)C(=O)N[C@H]1C[C@H]2CC[C@@H](C1)N2c1ccc(C(=O)NCC(F)F)c[n+]1[O-] [Example 479, 6-[3-endo-({2-[2,4-dichloro-5-(2-hydroxypropan-2-yl)phenoxy]-2-methylpropanoyl}amino)-8-azabicyclo[3.2.1]oct-8-yl]-N-(2,2-difluoroethyl)pyridine-3-carboxamide 1-oxide] | < 2
21 | N-(2,2-difluoroethyl)-6- [3-endo-({2-[2-fluoro-4- (2-hydroxypropan-2- yl)phenoxy]-2- methylpropanoyl}amino)- 8-azabicyclo[3.2.1]oct- 8-yl]pyridine-3- carboxamide [Example 305] | < 0.2

From patent publication US8163771B2, “11 β-HSD1 modulators” (Exelixis, Inc., priority 2008, dated 2012)
